In PMC8778187, “A New Oxygen Containing Pyclen-Type Ligand as a Manganese(II) Binder for MRI and ^52Mn PET Applications: Equilibrium, Kinetic, Relaxometric, Structural and Radiochemical Studies” (Molecules, 2022):

Legend:
[1] = Metal exchange (transmetalation) with Zn(II) followed by T2 relaxometry; assay type: physicochemical
From the text: The kinetic inertness of the complexes considered for in vivo applications is an important parameter. It can be characterized by using various approaches. One of the possibilities is to study the rates of dissociation of the complexes, by following the transmetalation reactions occurring between the complex and the large excess (applied to ensure pseudo-first-order conditions) of a suitable exchanging metal ions (essential metal ions, such as Zn(II) or Cu(II) are often used for this purpose). The rates of dissociation reactions are explored as a function of pH (in a wide pH range) as well as in a wide metal ion concentration range, in order to obtain information about the contribution of various mechanisms (spontaneous, acid-, or metal-assisted dissociation). […] Results obtained for different complexes under the same conditions can be compared, and the order of relative inertness can be accessed rapidly. Finally, in the field of nuclear medicine, the “serum stability” is often determined, which, in fact, reflects dissociation in the blood serum (i.e., the dissociation initiated by the serum components). Upon the dissociation of the complex, the Mn(II) reacts with the serum components (HSA for instance), which results in a considerable relaxivity enhancement caused by the formation of Mn(II) species with a longer rotational correlation time (a remarkable increase in molecular mass). Therefore, ^1H relaxometry is an easily accessible tool for following the transmetalation/transchelation reactions of paramagnetic complexes occurring in blood serum.
Metal exchange reactions occurring with Zn(II) at pH = 6.0: first, we evaluated the rate of the metal exchange reaction occurring with Zn(II) under the conditions proposed by P. Caravan and coworkers, in order to have an idea of how the replacement of the secondary amine group for an etheric oxygen in the rim of the pyclen macrocycle affects the inertness of its corresponding Mn(II) complex. The plot of the 1/T2 values as a function of time for the [Mn(3,9-OPC2A)] and [Mn(3,9-PC2A)] complexes are shown in Figure S26 (Supporting Information). Fitting the measured data for the [Mn(3,9-OPC2A)] by the monoexponential function gives the rate constant kobs = (1.74 ± 0.04) × 10^−5 s^−1.
The inertness of the [Mn(3,9-OPC2A)] complex was studied by various methods. The transmetalation reaction initiated by the Zn(II) ions was monitored by measuring the T2 relaxation times as a function of time at pH = 6.0, set by a 50 mM 2-(N-morpholino)ethanesulfonic acid (MES) buffer in the presence of 25 equivalents of Zn(II) ions at 37 °C. These conditions were recently used by P. Caravan et al., and employed in the present study to obtain data that can be directly compared with that of [Mn(PyC3A)]^– [6].

[2] = Ligand protonation constants by pH-potentiometric titration; assay type: physicochemical; settings: T = 25 °C, I = 0.15 M NaCl
Procedure: The protonation constants of H2OPC2A have been determined by pH-potentiometry in 0.15 M NaCl ionic medium, and the constants determined are listed in Table 2, along with the corresponding values determined for structurally similar ligands used as comparative benchmarks (H23,9-PC2A, H23,6-PC2A, H21,4-DO2A, H21,7-DO2A, and H21,7-O2DO2A).
Metal stock solutions were prepared from the highest analytical grade chemicals, and their concentrations were determined by complexometric titration with standardized Na2H2EDTA and eriochrome black T indicator in the presence of ascorbic acid, and potassium hydrogen tartrate for MnCl2, murexide indicator for CaCl2 and CuCl2, eriochrome black T for MgCl2 and xylenol orange in the presence of hexamethylenetetramine for the solution of ZnCl2. The concentration of the ligand stock solution was determined by pH-potentiometric titrations. The protonation constants of the ligand were determined by the pH potentiometric titrations with 0.15 M NaOH, using 0.0025 M ligand solutions. The ionic strength was set to 0.15 M by using NaCl. […]
To avoid the effect of CO2, N2 gas was bubbled through the solutions during the titrations process. […] For the calibration of the pH meter, KH-phtalate (pH = 4.005) and borax (pH = 9.177) buffers were used, and the H^+ ion concentrations were calculated from the measured pH values by applying the method proposed by Irving et al.. […]

[3] = pH = 6.0, 25 equivalents of Zn(II), 37 °C

| half-life of dissociation at pH = 7.4 ([1]; pH = 7.4, large Zn(II) excess, from the rate constant) | log K3^H [2] | Σlog Κ2^H ([2]; log K1^H + log K2^H) | Compound | kobs ([1]; pH = 6.0 (50 mM MES), 25 equivalents of Zn(II), 37 °C) | kobs lower than that of [Mn(PyC3A)] [1, 3] | kobs smaller than that of [Mn(3,9-PC2A)] [1, 3] |
| --- | --- | --- | --- | --- | --- | --- |
| 40.0 h | – | – | O=C([O-])CN1CCOCCN(CC(=O)[O-])Cc2cccc(n2)C1.[Mn+2] [[Mn(3,9-OPC2A)]] | (1.74 ± 0.04) × 10^−5 s^−1 | ~40 times | circa 20 times |
| – | 2.13(1) | 15.39 | O=C(O)CN1CCOCCN(CC(=O)O)Cc2cccc(n2)C1 [H23,9-OPC2A, 6-Oxa-3,9,15-triazabicyclo(9.3.1)pentadeca-1(15),11,13-triene-3,9-diacetic acid] | – | – | – |
